Reference: ChEMBL document CHEMBL1201862, “PubChem BioAssay data set” (2004)
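Exposure lasted 48 hours, with cells grown in 96-well plates and compounds tested at five concentrations. At the GI50, growth is halved.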 Activity calls are given as the source filed them. No stated cut-off is given here; in the data, active = GI50 up to about 1.1 µM and inactive = higher.

What was measured:
Test in all cases: growth of human tumour cells (NCI), 48 h
MCF7 = tested on: MCF7
SNB-75 = tested on: SNB-75
K562 = tested on: K562
HOP-92 = tested on: HOP-92
OVCAR-3 = tested on: OVCAR-3
HL-60 = tested on: HL-60
MOLT-4 = tested on: MOLT-4
HOP-62 = tested on: HOP-62
RXF 393 = tested on: RXF 393
BT-549 = tested on: BT-549
NCI-H460 = tested on: NCI-H460
IGROV-1 = tested on: IGROV-1
NCI/ADR-RES = tested on: NCI/ADR-RES
M14 = tested on: M14
SF-539 = tested on: SF-539
EKVX = tested on: EKVX
SK-MEL-2 = tested on: SK-MEL-2
SF-295 = tested on: SF-295
HCC 2998 = tested on: HCC 2998
NCI-H23 = tested on: NCI-H23

Nc1c2ccccc2nc2ccc(C(=O)Nc3ccc(S(N)(=O)=O)cc3)cc12
GI50 (MCF7): > 100 µM (inactive) | GI50 (SNB-75): > 100 µM (inactive) | GI50 (K562): > 100 µM (inactive) | GI50 (HOP-92): > 100 µM (inactive) | GI50 (OVCAR-3): > 100 µM (inactive) | GI50 (HL-60): > 100 µM (inactive) | GI50 (MOLT-4): > 100 µM (inactive) | GI50 (HOP-62): > 100 µM (inactive) | GI50 (RXF 393): > 100 µM (inactive) | GI50 (BT-549): > 100 µM (inactive) | GI50 (NCI-H460): > 100 µM (inactive) | GI50 (IGROV-1): > 100 µM (inactive) | GI50 (NCI/ADR-RES): > 100 µM (inactive) | GI50 (M14): > 100 µM (inactive) | GI50 (SF-539): > 100 µM (inactive) | GI50 (EKVX): > 100 µM (inactive) | GI50 (SK-MEL-2): > 100 µM (inactive) | GI50 (SF-295): > 100 µM (inactive) | GI50 (HCC 2998): > 100 µM (inactive) | GI50 (NCI-H23): > 100 µM (inactive)

O=C1c2cc([N+](=O)[O-])sc2C(=O)c2cc([N+](=O)[O-])sc21
GI50 (MCF7): 2.58 µM (inactive) | GI50 (SNB-75): 12.6 µM (inactive) | GI50 (K562): 0.432 µM (active) | GI50 (HOP-92): 1.85 µM (inactive) | GI50 (OVCAR-3): 2.41 µM (inactive) | GI50 (HL-60): 0.0957 µM (active) | GI50 (MOLT-4): 2.84 µM (inactive) | GI50 (HOP-62): 6.21 µM (inactive) | GI50 (RXF 393): 6.03 µM (inactive) | GI50 (BT-549): 2.05 µM (inactive) | GI50 (NCI-H460): 19.4 µM (inactive) | GI50 (IGROV-1): 1.56 µM (inactive) | GI50 (NCI/ADR-RES): 3.62 µM (inactive) | GI50 (M14): 3.78 µM (inactive) | GI50 (SF-539): 3.2 µM (inactive) | GI50 (EKVX): 3.13 µM (inactive) | GI50 (SK-MEL-2): 6.7 µM (inactive) | GI50 (SF-295): 8.2 µM (inactive) | GI50 (HCC 2998): 3.05 µM (inactive) | GI50 (NCI-H23): 5.26 µM (inactive)

NS(=O)(=O)c1ccc(NC(NC(=O)C(C(F)(F)F)C(F)(F)F)(C(F)(F)F)C(F)(F)F)cc1
GI50 (MCF7): > 100 µM (inactive) | GI50 (SNB-75): > 100 µM (inactive) | GI50 (K562): > 100 µM (inactive) | GI50 (HOP-92): > 100 µM (inactive) | GI50 (OVCAR-3): > 100 µM (inactive) | GI50 (HL-60): > 100 µM (inactive) | GI50 (MOLT-4): > 100 µM (inactive) | GI50 (HOP-62): > 100 µM (inactive) | GI50 (RXF 393): > 100 µM (inactive) | GI50 (BT-549): > 100 µM (inactive) | GI50 (NCI-H460): > 100 µM (inactive) | GI50 (IGROV-1): > 100 µM (inactive) | GI50 (NCI/ADR-RES): > 100 µM (inactive) | GI50 (M14): > 100 µM (inactive) | GI50 (SF-539): > 100 µM (inactive) | GI50 (EKVX): > 100 µM (inactive) | GI50 (SK-MEL-2): > 100 µM (inactive) | GI50 (SF-295): > 100 µM (inactive) | GI50 (HCC 2998): > 100 µM (inactive) | GI50 (NCI-H23): > 100 µM (inactive)

Fc1cccc(F)c1C1SCc2nc3cc(Cl)ccc3n21 (centres undefined)
GI50 (MCF7): 15 µM (inactive) | GI50 (SNB-75): 40.1 µM (inactive) | GI50 (K562): 35.1 µM (inactive) | GI50 (HOP-92): 36.6 µM (inactive) | GI50 (OVCAR-3): 46 µM (inactive) | GI50 (HL-60): 14 µM (inactive) | GI50 (MOLT-4): 14 µM (inactive) | GI50 (HOP-62): > 100 µM (inactive) | GI50 (RXF 393): 48.8 µM (inactive) | GI50 (BT-549): 21.9 µM (inactive) | GI50 (NCI-H460): 41.5 µM (inactive) | GI50 (IGROV-1): > 42.9 µM (inactive) | GI50 (NCI/ADR-RES): 24.2 µM (inactive) | GI50 (M14): 31 µM (inactive) | GI50 (SF-539): 80.9 µM (inactive) | GI50 (EKVX): 36.6 µM (inactive) | GI50 (SK-MEL-2): 30.6 µM (inactive) | GI50 (SF-295): 33.2 µM (inactive) | GI50 (HCC 2998): 22.7 µM (inactive) | GI50 (NCI-H23): 28.5 µM (inactive)

CCC(=O)NC(Nc1cc(C)on1)(C(F)(F)F)C(F)(F)F
GI50 (MCF7): > 100 µM (inactive) | GI50 (SNB-75): > 100 µM (inactive) | GI50 (K562): > 100 µM (inactive) | GI50 (HOP-92): > 100 µM (inactive) | GI50 (OVCAR-3): > 100 µM (inactive) | GI50 (HL-60): > 100 µM (inactive) | GI50 (MOLT-4): > 100 µM (inactive) | GI50 (HOP-62): > 100 µM (inactive) | GI50 (RXF 393): > 100 µM (inactive) | GI50 (BT-549): > 100 µM (inactive) | GI50 (NCI-H460): > 100 µM (inactive) | GI50 (IGROV-1): > 100 µM (inactive) | GI50 (NCI/ADR-RES): > 100 µM (inactive) | GI50 (M14): > 100 µM (inactive) | GI50 (SF-539): > 100 µM (inactive) | GI50 (EKVX): > 100 µM (inactive) | GI50 (SK-MEL-2): > 100 µM (inactive) | GI50 (HCC 2998): > 100 µM (inactive) | GI50 (NCI-H23): > 100 µM (inactive)

CS(=O)(=O)c1ccc(/N=C/C=C/Nc2ccc(S(C)(=O)=O)cc2)cc1
GI50 (MCF7): > 100 µM (inactive) | GI50 (SNB-75): > 100 µM (inactive) | GI50 (K562): > 100 µM (inactive) | GI50 (HOP-92): > 100 µM (inactive) | GI50 (OVCAR-3): > 100 µM (inactive) | GI50 (HL-60): > 100 µM (inactive) | GI50 (MOLT-4): > 100 µM (inactive) | GI50 (HOP-62): > 100 µM (inactive) | GI50 (RXF 393): > 100 µM (inactive) | GI50 (BT-549): > 100 µM (inactive) | GI50 (NCI-H460): > 100 µM (inactive) | GI50 (IGROV-1): > 100 µM (inactive) | GI50 (NCI/ADR-RES): > 100 µM (inactive) | GI50 (M14): > 100 µM (inactive) | GI50 (SF-539): > 100 µM (inactive) | GI50 (EKVX): > 100 µM (inactive) | GI50 (SK-MEL-2): > 100 µM (inactive) | GI50 (SF-295): > 100 µM (inactive) | GI50 (HCC 2998): > 100 µM (inactive) | GI50 (NCI-H23): > 100 µM (inactive)

C[C@H](Nc1nc(N)c(N=O)c(=O)n1C)C(=O)O
GI50 (MCF7): > 10 µM (inactive) | GI50 (SNB-75): > 10 µM (inactive) | GI50 (K562): > 10 µM (inactive) | GI50 (HOP-92): > 10 µM (inactive) | GI50 (OVCAR-3): > 10 µM (inactive) | GI50 (HL-60): > 10 µM (inactive) | GI50 (MOLT-4): > 10 µM (inactive) | GI50 (HOP-62): > 10 µM (inactive) | GI50 (RXF 393): > 10 µM (inactive) | GI50 (BT-549): > 10 µM (inactive) | GI50 (NCI-H460): > 10 µM (inactive) | GI50 (IGROV-1): > 10 µM (inactive) | GI50 (NCI/ADR-RES): > 10 µM (inactive) | GI50 (M14): > 10 µM (inactive) | GI50 (SF-539): > 10 µM (inactive) | GI50 (EKVX): > 10 µM (inactive) | GI50 (SK-MEL-2): > 10 µM (inactive) | GI50 (SF-295): > 10 µM (inactive) | GI50 (HCC 2998): > 10 µM (inactive) | GI50 (NCI-H23): > 10 µM (inactive)
